From patent publication US20230041743A1, “1,8-NAPHTHYRIDIN-2-ONE COMPOUNDS FOR THE TREATMENT OF AUTOIMMUNE DISEASE” (Hoffmann-La Roche Inc., priority 2019, published 2023) come the findings set out here.

Series [1] can be described thus: Human microsomal stability assay. The series is classed as in vitro ADME. Particulars: human liver microsomes, 1 μM test compound, 0.5 mg/mL protein, 37° C.; low <7.0, medium 7.0-16.2, high 16.2-23.2. As to the method: Human Microsomal Stability Assay
Human liver microsomes (Cat. NO.: 452117, Corning, USA) were preincubated with test compound for 10 minutes at 37° C. in 100 mM potassium phosphate buffer, pH 7.4. The reactions were initiated by adding NADPH regenerating system. The final incubation mixtures contained 1 μM test compound, 0.5 mg/mL liver microsomal protein, 1 mM MgCl2, 1 mM NADP, 1 unit/mL isocitric dehydrogenase and 6 mM isocitric acid in 100 mM potassium phosphate buffer, pH 7.4. After incubation times of 0, 3, 6, 9, 15 and 30 minutes at 37° C., 300 μL of cold ACN (including internal standard) was added to 100 μL incubation mixture to terminate the reaction. Following precipitation and centrifugation, 100 uL supernatant will be taken out and added 300 uL water.
The amount of compound remaining in the samples was determined by LC-MS/MS. Controls of no NADPH regenerating system at zero and 30 minutes were also prepared and analyzed. The results were categorized as: low (<7.0 mL/min/kg), medium (7.0-16.2 mL/min/kg) and high (16.2-23.2 mL/min/kg).
Background: Liver microsomes are vesicles of endoplasmic reticulum, rich in cytochrome P450 enzymes.

Series [2] concerns the target T1, human TLR7 (Homo sapiens, UniProt Q9NYK1).
T1 construct: host or cells: HEK293 (HEK-Blue hTLR7)
T1 sequence (Q9NYK1 27-1049): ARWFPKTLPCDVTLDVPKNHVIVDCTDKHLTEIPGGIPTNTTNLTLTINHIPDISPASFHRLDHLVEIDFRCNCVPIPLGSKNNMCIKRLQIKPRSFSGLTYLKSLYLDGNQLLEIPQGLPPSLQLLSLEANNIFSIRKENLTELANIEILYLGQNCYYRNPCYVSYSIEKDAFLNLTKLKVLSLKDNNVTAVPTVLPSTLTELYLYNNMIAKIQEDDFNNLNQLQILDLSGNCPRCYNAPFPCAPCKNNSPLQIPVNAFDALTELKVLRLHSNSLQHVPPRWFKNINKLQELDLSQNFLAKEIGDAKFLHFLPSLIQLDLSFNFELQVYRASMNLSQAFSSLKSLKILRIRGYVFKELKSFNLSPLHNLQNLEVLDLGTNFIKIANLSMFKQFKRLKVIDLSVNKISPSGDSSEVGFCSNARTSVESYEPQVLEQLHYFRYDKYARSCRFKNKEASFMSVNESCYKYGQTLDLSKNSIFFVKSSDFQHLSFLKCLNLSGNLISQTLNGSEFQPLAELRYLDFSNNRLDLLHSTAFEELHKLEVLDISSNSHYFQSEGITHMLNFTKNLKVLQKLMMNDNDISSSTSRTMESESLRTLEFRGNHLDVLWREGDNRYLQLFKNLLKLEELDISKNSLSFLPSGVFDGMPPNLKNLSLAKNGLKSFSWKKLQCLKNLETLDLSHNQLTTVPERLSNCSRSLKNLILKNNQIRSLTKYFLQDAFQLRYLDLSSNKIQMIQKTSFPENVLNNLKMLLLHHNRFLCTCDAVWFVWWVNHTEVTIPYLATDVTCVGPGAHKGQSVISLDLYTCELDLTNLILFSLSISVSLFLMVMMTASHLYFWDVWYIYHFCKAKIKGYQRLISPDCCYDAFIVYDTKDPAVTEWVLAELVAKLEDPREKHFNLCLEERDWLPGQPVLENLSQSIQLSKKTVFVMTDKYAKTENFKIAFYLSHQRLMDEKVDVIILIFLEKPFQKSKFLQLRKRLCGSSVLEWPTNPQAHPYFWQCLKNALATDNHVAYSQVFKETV
Nature of the series: HEK293-Blue-hTLR-7 cells assay (SEAP reporter, R848 stimulation). Particulars: HEK293-Blue-hTLR7 cells, R848 ligand, 20 hrs incubation; read-out: HEK/hTLR7 IC50. The class given is cell-based. The text has this:
HEK293-Blue-hTLR-7 Cells Assay:
A stable HEK293-Blue-hTLR-7 cell line was purchased from InvivoGen (Cat. #: hkb-htlr7, San Diego, Calif., USA). These cells were originally designed for studying the stimulation of human TLR7 by monitoring the activation of NF-κB. A SEAP (secreted embryonic alkaline phosphatase) reporter gene was placed under the control of the IFN-β minimal promoter fused to five NF-κB and AP-1-binding sites. The SEAP was induced by activating NF-κB and AP-1 via stimulating HEK-Blue hTLR7 cells with TLR7 ligands. Therefore the reporter expression was declined by TLR7 antagonist under the stimulation of a ligand, such as R848 (Resiquimod), for incubation of 20 hrs. The cell culture supernatant SEAP reporter activity was determined using QUANTI-Blue™ kit (Cat. #: rep-qb1, Invivogen, San Diego, Ca, USA) at a wavelength of 640 nm, a detection medium that turns purple or blue in the presence of alkaline phosphatase.
HEK293-Blue-hTLR7 cells were incubated at a density of 250,000-450,000 cells/mL in a volume of 170 μL in a 96-well plate in Dulbecco's Modified Eagle's medium (DMEM) containing 4.5 g/L glucose, 50 U/mL penicillin, […], […], 2 mM L-glutamine, 10% (v/v) heat-inactivated fetal bovine serum with addition of 20 μL test compound in a serial dilution in the presence of final DMSO at 1% and 10 μL of 20 uM R848 in above DMEM, perform incubation under 37° C. in a CO2 incubator for 20 hrs. Then 20 μL of the supernatant from each well was incubated with 180 μL Quanti-blue substrate solution at 37° C. for 2 hrs and the absorbance was read at 620˜655 nm using a spectrophotometer. The signaling pathway that TLR7 activation leads to downstream NF-κB activation has been widely accepted, and therefore similar reporter assay was modified for evaluating TLR7 antagonist.

`C[C@@H]1CN(c2cc(=O)n(C)c3ncccc23)C[C@@H]2c3ccc(N4CCOC5(CNC5)C4)cc3CN12` [Example 11, 4-[(4R,10bS)-4-methyl-8-(5-oxa-2,8-diazaspiro[3.5]nonan-8-yl)-3,4,6,10b-tetrahydro-1H-pyrazino[2,1-a]isoindol-2-yl]-1-methyl-1,8-naphthyridin-2-one]: the “CL (h)” value in series [1] came out at 6.9 mL/min/kg. The IC50 in series [2] amounted to 30.5 nM.

As to `C[C@@H]1CN(c2cc(=O)n(C)c3ncccc23)C[C@@H]2c3ccc(N4CCNCC4)cc3CN12` [Example 12, 4-[(4R,10bS)-4-methyl-8-piperazin-1-yl-3,4,6,10b-tetrahydro-1H-pyrazino[2,1-a]isoindol-2-yl]-1-methyl-1,8-naphthyridin-2-one], the “CL (h)” value in series [1] was determined as 6.2 mL/min/kg. In series [2], the IC50 is 11.9 nM.

Regarding `C[C@@H]1CN(c2cc(=O)n(C)c3ncccc23)C[C@@H]2c3ccc(N4CCN[C@@H](C)C4)cc3CN12` [Example 13, 4-[(4R,10bS)-4-methyl-8-[(3S)-3-methylpiperazin-1-yl]-3,4,6,10b-tetrahydro-1H-pyrazino[2,1-a]isoindol-2-yl]-1-methyl-1,8-naphthyridin-2-one], the “CL (h)” value in series [1] is 7.9 mL/min/kg. Further, the IC50 in series [2] came out at 13 nM.

On to `C[C@@H]1CN(c2cc(=O)n(C)c3ncccc23)C[C@@H]2c3ccc(N4CCC[C@](C)(N)C4)cc3CN12` [Example 15, 4-[(4R,10bS)-8-[(3S)-3-amino-3-methyl-1-piperidyl]-4-methyl-3,4,6,10b-tetrahydro-1H-pyrazino[2,1-a]isoindol-2-yl]-1-methyl-1,8-naphthyridin-2-one], for which the “CL (h)” value in series [1] turned out to be 8.0 mL/min/kg. The IC50 in series [2] stood at 12 nM.

For `C[C@@H]1CN(c2cc(=O)n(C)c3ncccc23)C[C@@H]2c3ccc(N4CCC[C@@H](N)C4)cc3CN12` [Example 16, 4-[(4R,10bS)-8-[(3R)-3-amino-1-piperidyl]-4-methyl-3,4,6,10b-tetrahydro-1H-pyrazino[2,1-a]isoindol-2-yl]-1-methyl-1,8-naphthyridin-2-one], in series [1], the “CL (h)” value came to 8.5 mL/min/kg. In addition, the IC50 in series [2] came to 15.9 nM.

For the compound `C[C@@H]1CN(c2cc(=O)n(C)c3ncccc23)C[C@@H]2c3ccc(N4CCC(C)(N)CC4)cc3CN12` [Example 18, 4-[(4R,10bS)-8-(4-amino-4-methyl-1-piperidyl)-4-methyl-3,4,6,10b-tetrahydro-1H-pyrazino[2,1-a]isoindol-2-yl]-1-methyl-1,8-naphthyridin-2-one], the “CL (h)” value in series [1] was 6.2 mL/min/kg. The IC50 in series [2] came to 9.8 nM.

On to `C[C@@H]1CN(c2cc(=O)n(C)c3ncccc23)C[C@@H]2c3ccc(N4C[C@@H]5C[C@H]4CN5)cc3CN12` [Example 19, 4-[(4R,10bS)-8-[(1S,4S)-2,5-diazabicyclo[2.2.1]heptan-2-yl]-4-methyl-3,4,6,10b-tetrahydro-1H-pyrazino[2,1-a]isoindol-2-yl]-1-methyl-1,8-naphthyridin-2-one], for which, in series [1], the “CL (h)” value worked out at 6.2 mL/min/kg. For the same compound, the IC50 in series [2] was determined as 15.6 nM.

`C[C@@H]1CN(c2cc(=O)n(C)c3ncccc23)C[C@@H]2c3ccc(N4C[C@H]5C[C@@H]4CN5)cc3CN12` [Example 20, 4-[(4R,10bS)-8-[(1R,4R)-2,5-diazabicyclo[2.2.1]heptan-2-yl]-4-methyl-3,4,6,10b-tetrahydro-1H-pyrazino[2,1-a]isoindol-2-yl]-1-methyl-1,8-naphthyridin-2-one]: in series [1], the “CL (h)” value is 6.2 mL/min/kg. Also, the IC50 in series [2] turned out to be 52.1 nM.

With `C[C@@H]1CN(c2cc(=O)n(C)c3ncccc23)C[C@@H]2c3ccc(N4CC5CCC(C4)N5)cc3CN12` [Example 21, 4-[(4R,10bS)-8-(3,8-diazabicyclo[3.2.1]octan-3-yl)-4-methyl-3,4,6,10b-tetrahydro-1H-pyrazino[2,1-a]isoindol-2-yl]-1-methyl-1,8-naphthyridin-2-one], the “CL (h)” value in series [1] came to 6.4 mL/min/kg. Further, the IC50 in series [2] was determined as 13.7 nM.

On to `C[C@@H]1CN(c2cc(=O)n(C)c3ncccc23)C[C@@H]2c3ccc(OCCN(C)C)cc3CN12` [Example 23, 4-[(4R,10bS)-8-[2-(dimethylamino)ethoxy]-4-methyl-3,4,6,10b-tetrahydro-1H-pyrazino[2,1-a]isoindol-2-yl]-1-methyl-1,8-naphthyridin-2-one], for which, in series [1], the “CL (h)” value was determined as 6.2 mL/min/kg. In addition, in series [2], the IC50 came out at 31 nM.

For the compound `C[C@@H]1CN(c2cc(=O)n(C)c3ncccc23)C[C@@H]2c3ccc(C4CCNCC4)cc3CN12` [Example 24, 4-[(4R,10bS)-4-methyl-8-(4-piperidyl)-3,4,6,10b-tetrahydro-1H-pyrazino[2,1-a]isoindol-2-yl]-1-methyl-1,8-naphthyridin-2-one], the “CL (h)” value in series [1] is 6.2 mL/min/kg. For the same compound, the IC50 in series [2] was 3.7 nM.

Consider `C[C@@H]1CN(c2cc(=O)n(C)c3ncccc23)C[C@@H]2c3ccc(C4CCCNC4)cc3CN12` (stereo partly drawn) [Example 25, 4-[(4R,10bS)-4-methyl-8-(3-piperidyl)-3,4,6,10b-tetrahydro-1H-pyrazino[2,1-a]isoindol-2-yl]-1-methyl-1,8-naphthyridin-2-one], for which the “CL (h)” value in series [1] was found to be 6.2 mL/min/kg. In series [2], the IC50 came to 6.7 nM.

Turning to `C[C@@H]1CN(c2cc(=O)n(C)c3ncccc23)C[C@@H]2c3ccc(C4CCNC4)cc3CN12` (stereo partly drawn) [Example 26, 4-[(4R,10bS)-4-methyl-8-pyrrolidin-3-yl-3,4,6,10b-tetrahydro-1H-pyrazino[2,1-a]isoindol-2-yl]-1-methyl-1,8-naphthyridin-2-one], in series [1], the “CL (h)” value was found to be 9.8 mL/min/kg. Further, the IC50 in series [2] turned out to be 8.3 nM.

Consider `C[C@@H]1CN(c2cc(=O)n(C)c3ncccc23)C[C@@H]2c3ccc([C@H]4CC[C@H](N5CCOCC5)CC4)cc3CN12` [Example 27A, 4-[(4R,10bS)-4-methyl-8-(trans-4-morpholinocyclohexyl)-3,4,6,10b-tetrahydro-1H-pyrazino[2,1-a]isoindol-2-yl]-1-methyl-1,8-naphthyridin-2-one], for which, in series [1], the “CL (h)” value came to 7.3 mL/min/kg. In addition, in series [2], the IC50 is 7 nM.
